Laboratory results as given in PubChem BioAssay (NCI).
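Results reflect a 48-hour exposure of cells in 96-well plates to compound at five concentrations. GI50 = concentration required for 50% inhibition of growth. TGI: total growth inhibition.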

Experiments:
Assay in all cases: NCI anticancer screen, dose series, 48 h
A498 renal = system: A498 renal
COLO 205 colon = system: COLO 205 colon
DU-145 prostate = system: DU-145 prostate
EKVX NSCLC = system: EKVX NSCLC
HCT-116 colon = system: HCT-116 colon
IGROV1 ovarian = system: IGROV1 ovarian
RPMI-8226 leukemia = system: RPMI-8226 leukemia
SNB-75 CNS = system: SNB-75 CNS
T-47D breast = system: T-47D breast
SF-295 CNS = system: SF-295 CNS
SK-OV-3 ovarian = system: SK-OV-3 ovarian

| SMILES | TGI (A498 renal) [µM] | TGI (COLO 205 colon) [µM] | TGI (DU-145 prostate) [µM] | TGI (EKVX NSCLC) [µM] | TGI (HCT-116 colon) [µM] | TGI (IGROV1 ovarian) [µM] | TGI (RPMI-8226 leukemia) [µM] | TGI (SNB-75 CNS) [µM] | TGI (T-47D breast) [µM] | GI50 (COLO 205 colon) [µM] | GI50 (IGROV1 ovarian) [µM] | GI50 (RPMI-8226 leukemia) [µM] | GI50 (SF-295 CNS) [µM] | TGI (SF-295 CNS) [µM] | GI50 (SK-OV-3 ovarian) [µM] | TGI (SK-OV-3 ovarian) [µM] | GI50 (SNB-75 CNS) [µM] | GI50 (T-47D breast) [µM] | GI50 (A498 renal) [µM] |
| --- | --- | --- | --- | --- | --- | --- | --- | --- | --- | --- | --- | --- | --- | --- | --- | --- | --- | --- | --- |
| NNc1nc2ccccc2s1 | > 100 | > 100 | > 100 | > 100 | > 100 | > 100 | > 100 | > 100 | > 100 |  |  |  |  |  |  |  |  |  |  |
| Nc1ccc2c3c(n(CCCCl)c(=O)c2c1)-c1cc2c(cc1C3=O)OCO2 |  | > 100 |  |  |  | > 100 | > 100 | > 100 | > 100 | > 100 | 0.177 | > 100 | 0.349 | > 100 | > 100 | > 100 | > 100 | > 100 |  |
| CCC(=O)NC(Nc1ccc(O)cc1)(C(F)(F)F)C(F)(F)F | > 100 |  | > 100 | > 100 | > 100 |  | > 100 | > 100 | > 100 |  |  |  |  |  |  | > 100 |  |  |  |
| CC12CCC(C(=O)N3CC=CCC3)(OC1=O)C2(C)C (stereo not drawn) | > 100 | > 100 |  | > 100 | > 100 | > 100 | > 100 | > 100 |  |  |  |  |  | > 100 |  | > 100 |  |  |  |
| c1cn2cc(-c3ccc4ncn(C5CCCCC5)c4c3)nc(-c3ccc4c(c3)ncn4C3CCCCC3)c2n1 | 3.22 | 3.79 |  |  |  |  | 3.99 | 3.07 | 4.69 | 1.93 |  | 0.806 | 1.71 | 3.15 | 2.27 | 4.1 | 1.39 | 1.9 | 1.77 |
| O=C(O)C1Cc2c([nH]c3ccccc23)C=N1 (stereo not drawn) | > 100 | > 100 |  | > 100 | > 100 | > 100 | > 100 | > 100 |  |  |  |  |  | > 100 |  | > 100 |  |  |  |
